The assay has as its target one or more of HDAC-4, HDAC-5, HDAC-6, HDAC-7, HDAC-8, HDAC-9, HDAC-10 and HDAC-11. As to the kind of experiment: Inhibition of histone deacetylase enzymatic activity (summary statement over isoforms). It counts as biochemical. The note with it: Table 3, selected examples; HDAC isoform not given. Put shortly: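 Activity was measured as deacetylation of the fluorogenic substrate Boc-Lys(trifluoroacetyl)-AMC over 20-30 min at 37 °C, after a 5 min room-temperature preincubation of enzyme with compound. Trypsin (1 mg/mL) with a reference HDAC inhibitor ended the reaction.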

Bounds are passed on as bounds.

In the case of `O=C(NO)C(c1ccccc1)N1CCN(C2=Nc3ccccc3Oc3ccc(Cl)cc32)CC1` (stereo not shown) [Compound 5-20, (E)-2-(4-(2-chlorodibenzo[b,f][1,4]oxazepin-11-yl)piperazin-1-yl)-N-hydroxy-2-phenylacetamide], the IC50 (usually the midpoint of a concentration-inhibition curve) is under 1000 nM.
Then `O=C(NO)C(c1ccccc1)c1nnc(-c2ccccc2)s1` (stereo not shown) [Compound 5-19, N-hydroxy-2-phenyl-2-(5-phenyl-1,3,4-thiadiazol-2-yl)acetamide], with 1000 to 15000 nM.
Consider `O=C(NO)C(c1ccc(N2CCOCC2)cc1)c1ccsc1` (stereo not shown) [Compound 5-112, N-hydroxy-2-(4-morpholinophenyl)-2-(thiophen-3-yl)acetamide], for which the IC50 is under 1000 nM.
Take `O=C(NO)C(c1ccccc1)c1nnc(-c2ccc3c(c2)OCO3)s1` (stereo not shown) [Compound 5-38, 2-(5-(benzo[d][1,3]dioxol-5-yl)-1,3,4-thiadiazol-2-yl)-N-hydroxy-2-phenylacetamide]: the IC50 is under 1000 nM.
Turning to `O=C(NO)C(c1ccccc1)C1CCN(c2ncccn2)CC1` (stereo not shown) [Compound 5-126, N-hydroxy-2-phenyl-2-(1-(pyrimidin-2-yl)piperidin-4-yl)acetamide], the IC50 fell in the range of 1000 to 15000 nM.
The same measure for `O=C(NO)C(c1ccc(N2CCOCC2)cc1)c1cccs1` (stereo not shown) [Compound 5-104, N-hydroxy-2-(4-morpholinophenyl)-2-(thiophen-2-yl)acetamide]: under 1000 nM.
In the case of `Cn1cnc(S(=O)(=O)N2CCN(C(C(=O)NO)c3ccccc3)CC2)c1` (stereo not shown) [Compound 2-38, N-hydroxy-2-(4-(1-methyl-1H-imidazol-4-ylsulfonyl)piperazin-1-yl)-2-phenylacetamide], the IC50 was under 1000 nM.
The same measure for `O=C(NO)C(c1ccccc1)c1ccc(CCCN2CCS(=O)(=O)CC2)cc1` (stereo not shown) [Compound 5-95]: under 1000 nM; for `O=C(NO)C(c1ccccc1)c1nnc(-c2ccc(Br)cc2)s1` (stereo not shown) [Compound 1-39, 2-(5-(4-bromophenyl)-1,3,4-thiadiazol-2-yl)-N-hydroxy-2-phenylacetamide]: under 1000 nM; for `O=C(NO)C(c1ccccc1)c1cccc(C#CCC2CCCC2)c1` (stereo not shown) [Compound 2-96, 2-(3-(3-cyclopentylprop-1-ynyl)phenyl)-N-hydroxy-2-phenylacetamide]: under 1000 nM.
The compound `O=C(NO)C(c1ccccc1)c1ccc(OC2CCN(Cc3ccccc3)CC2)cc1` (stereo not shown) [Compound 5-123, 2-(4-(1-benzylpiperidin-4-yloxy)phenyl)-N-hydroxy-2-phenylacetamide] displayed an IC50 of under 1000 nM.
In turn, `O=C(NO)C(c1ccccc1)N1CCC(c2nc(-c3cccnc3)no2)CC1` (stereo not shown) [Compound 2-43, N-hydroxy-2-phenyl-2-(4-(3-(pyridin-3-yl)-1,2,4-oxadiazol-5-yl)piperidin-1-yl)acetamide] had an IC50 of under 1000 nM.
Turning to `Cc1ccc(OC(C(=O)NO)c2ccccc2)c2c1CCC2` (stereo not shown) [Compound 7-35, N-hydroxy-2-(7-methyl-2,3-dihydro-1H-inden-4-yloxy)-2-phenylacetamide], the IC50 was in the range of 1000 to 15000 nM.
Then `O=C(NO)C(c1ccccc1)c1ccc(N2CCNCC2)cc1` (stereo not shown) [Compound 5-86, N-hydroxy-2-phenyl-2-(4-(piperazin-1-yl)phenyl)acetamide], with under 1000 nM; and `O=C(NO)C(c1ccccc1)N1CCC(Cc2ccccc2)CC1` (stereo not shown) [Compound 1-9, 2-(4-benzylpiperidin-1-yl)-N-hydroxy-2-phenylacetamide], with under 1000 nM; and `CCOc1cccc(C(C(=O)NO)c2ccccc2)c1` (stereo not shown) [Compound 3-22, 2-(3-ethoxyphenyl)-N-hydroxy-2-phenylacetamide], with under 1000 nM.
Then `C=CCCOc1cccc(C(C(=O)NO)c2ccccc2)c1` (stereo not shown) [Compound 3-26, 2-(3-(but-3-enyloxy)phenyl)-N-hydroxy-2-phenylacetamide], with 1000 to 15000 nM.
`O=C(NO)C(c1ccccc1)c1ccc(N2CCCCC2=O)cc1` (stereo not shown) [Compound 5-110, N-hydroxy-2-(4-(2-oxopiperidin-1-yl)phenyl)-2-phenylacetamide]: the IC50 is under 1000 nM.
Compound `COc1ccc(-c2ccc(C(C(=O)NO)c3ccccc3)cc2)cc1` (stereo not shown) [Compound 5-9, N-hydroxy-2-(4′-methoxybiphenyl-4-yl)-2-phenylacetamide] displayed a concentration for half-maximal inhibition (IC50) of under 1000 nM.
As for `O=C(NO)C(c1ccccc1)c1ccc(N2CCN(Cc3ccc4c(c3)OCO4)CC2)cc1` (stereo not shown) [Compound 5-76, 2-(4-(4-(benzo[d][1,3]dioxol-5-ylmethyl)piperazin-1-yl)phenyl)-N-hydroxy-2-phenylacetamide], the IC50 was under 1000 nM.
The same measure for `O=C(NO)C(c1ccccc1)c1cccc(OCCc2ccccc2)c1` (stereo not shown) [Compound 2-7, N-hydroxy-2-(3-phenethoxyphenyl)-2-phenylacetamide]: 1000 to 15000 nM; for `O=C(NO)C(c1ccccc1)c1ccc(OCCc2ccccc2)cc1` (stereo not shown) [Compound 2-12, N-hydroxy-2-(4-phenethoxyphenyl)-2-phenylacetamide]: under 1000 nM.
The compound `O=C(NO)C(c1ccc(N2CCOCC2)cc1)c1c(F)cccc1F` (stereo not shown) [Compound 6-24, 2-(2,6-difluorophenyl)-N-hydroxy-2-(4-morpholinophenyl)acetamide] showed an IC50 of 1000 to 15000 nM.
The same measure for `COc1ccc(-c2ccc(C(C(=O)NO)c3ccccc3)cc2)cc1OC` (stereo not shown) [Compound 2-114, 2-(3′,4′-dimethoxybiphenyl-4-yl)-N-hydroxy-2-phenylacetamide]: under 1000 nM.
The same measure for `O=C(NO)C(c1ccccc1)c1ccc(-c2ccncc2)cc1` (stereo not shown) [Compound 5-10, N-hydroxy-2-phenyl-2-(4-(pyridin-4-yl)phenyl)acetamide]: under 1000 nM.
Then `O=C(CN(Cc1ccccc1)S(=O)(=O)c1ccccc1)NO` [Compound 1-5, 2-(N-benzylphenylsulfonamido)-N-hydroxyacetamide], with 1000 to 15000 nM.
As to `O=C(NO)C(c1ccccc1)c1cccc(-c2ccc3c(c2)CCO3)c1` (stereo not shown) [Compound 2-104, 2-(3-(2,3-dihydrobenzofuran-5-yl)phenyl)-N-hydroxy-2-phenylacetamide], the IC50 was under 1000 nM.
The compound `O=C(NO)C(c1ccccc1)N1CCC(CCc2ccccc2)CC1` (stereo not shown) [Compound 1-31, N-hydroxy-2-(4-phenethylpiperidin-1-yl)-2-phenylacetamide] displayed an IC50 of under 1000 nM.
In turn, `O=C(NO)C(c1ccccc1)c1cccc(NS(=O)(=O)c2ccc(Cl)cc2)c1` (stereo not shown) [Compound 2-93, 2-(3-(4-chlorophenylsulfonamido)phenyl)-N-hydroxy-2-phenylacetamide] had an IC50 of 1000 to 15000 nM.
The compound `CCSc1ccc(-c2ccc(C(C(=O)NO)c3ccccc3)cc2)cc1` (stereo not shown) [Compound 2-115, 2-(4′-(ethylthio)biphenyl-4-yl)-N-hydroxy-2-phenylacetamide] displayed an IC50 of under 1000 nM.
Then `CCOc1ccc(C(C(=O)NO)c2ccccc2)cc1` (stereo not shown) [Compound 3-44, 2-(4-ethoxyphenyl)-N-hydroxy-2-phenylacetamide], with under 1000 nM; and `CCCCOc1cccc(C(C(=O)NO)c2ccccc2)c1` (stereo not shown) [Compound 2-5, 2-(3-butoxyphenyl)-N-hydroxy-2-phenylacetamide], with 1000 to 15000 nM.
In turn, `COc1ccc(OC(C(=O)NO)c2ccccc2)cc1OC` (stereo not shown) [Compound 7-42, 2-(3,4-dimethoxyphenoxy)-N-hydroxy-2-phenylacetamide] had an IC50 of 1000 to 15000 nM.
Then `O=C(NO)C(c1ccccc1)c1cccc(N2CCC(N3CCCC3)CC2)c1` (stereo not shown) [Compound 3-76, N-hydroxy-2-phenyl-2-(3-(4-(pyrrolidin-1-yl)piperidin-1-yl)phenyl)acetamide], with under 1000 nM.
Then `CN(C)c1ccc(C(C(=O)NO)c2ccc(O)cc2)cc1` (stereo not shown) [Compound 5-5, 2-(4-(dimethylamino)phenyl)-N-hydroxy-2-(4-hydroxyphenyl)acetamide], with under 1000 nM; and `O=C(NO)C(c1ccccc1)c1cccc(OC/C=C/c2ccccc2)c1` (stereo not shown) [Compound 3-9, (E)-2-(3-(cinnamyloxy)phenyl)-N-hydroxy-2-phenylacetamide], with under 1000 nM; and `O=C(NO)C(c1ccccc1)c1cccc(NCc2ccc(F)cc2)c1` (stereo not shown) [Compound 2-50, 2-(3-(4-fluorobenzylamino)phenyl)-N-hydroxy-2-phenylacetamide], with under 1000 nM.
The compound `O=C(NO)C(Sc1ccc(-c2ccccc2)cc1)c1ccccc1` (stereo not shown) [Compound 1-46, 2-(biphenyl-4-ylthio)-N-hydroxy-2-phenylacetamide] displayed an IC50 of under 1000 nM.
Consider `O=C(NO)C(c1ccc(N2CCOCC2)cc1)c1ccccc1F` (stereo not shown) [Compound 6-17, 2-(2-fluorophenyl)-N-hydroxy-2-(4-morpholinophenyl)acetamide], for which the IC50 was under 1000 nM.
The same measure for `CC(=O)ONC(=O)C(c1ccccc1)c1ccc(N2CCOCC2)cc1` (stereo not shown) [Compound 5-117, N-acetoxy-2-(4-morpholinophenyl)-2-phenylacetamide]: 1000 to 15000 nM; for `CC(=O)N1CCN(c2ccc(C(C(=O)NO)c3ccccc3)cc2)CC1` (stereo not shown) [Compound 3-82, 2-(4-(4-acetylpiperazin-1-yl)phenyl)-N-hydroxy-2-phenylacetamide]: under 1000 nM.
Then `O=C(NO)C(c1ccccc1)c1ccc(-c2ccc(N3CCOCC3)cc2)cc1` (stereo not shown) [Compound 5-34, N-hydroxy-2-(4′-morpholinobiphenyl-4-yl)-2-phenylacetamide], with under 1000 nM.
The same measure for `Cc1cccc(COc2ccc(C(C(=O)NO)c3ccccc3)cc2)c1` (stereo not shown) [Compound 3-58, N-hydroxy-2-(4-(3-methylbenzyloxy)phenyl)-2-phenylacetamide]: under 1000 nM; for `O=C(NO)C(c1ccccc1)c1ccc(NS(=O)(=O)c2ccccc2)cc1` (stereo not shown) [Compound 2-88, N-hydroxy-2-phenyl-2-(4-(phenylsulfonamido)phenyl)acetamide]: under 1000 nM.
Compound `O=C(NO)C(c1ccccc1)c1ccc(OCc2cccc(OC(F)(F)F)c2)cc1` (stereo not shown) [Compound 3-86, N-hydroxy-2-phenyl-2-(4-(3-(trifluoromethoxy)benzyloxy)phenyl)acetamide] gave an IC50 of under 1000 nM.
As for `O=C(NO)C(c1ccccc1)c1cccc(OCc2cccc(OC(F)(F)F)c2)c1` (stereo not shown) [Compound 3-87, N-hydroxy-2-phenyl-2-(3-(3-(trifluoromethoxy)benzyloxy)phenyl)acetamide], the IC50 was 1000 to 15000 nM.

Source of the values: patent US9096565B2, “Inhibitors of histone deacetylase” (MethylGene Inc., priority 2007, dated 2015).
